Measurements published in patent EP2471802A1, “Phosphoramidates of monosaccharides” (Bioiberica, S.A., priority 2010, dated 2012).

Legend:
[1] = system: bovine cartilage explants; assay: GAG release inhibition (IL-1 induced) in bovine cartilage explants, Blyscan colorimetric assay; format: cell-based; settings: for reduction in the GAG release induced by IL-1 (result in words): bovine explants, compared to culture stimulated with IL-1 in the presence of 0.25% DMSO
Procedure: (§1) Glycosaminoglycan (GAG) release is a test used to evaluate the effects of the compounds of the present invention on proteoglycan degradation induced by IL-1.
(§2) Full-depth articular cartilage were dissected from the metacarpophalangeal joints of calves of approximately 6 months of age or human cartilage from joint replacement surgery (approximately 4 mm diameter punches for bovine cartilage and 2 mm for human cartilage). After an equilibration period of 24 hours, explants were cultured for one day in 200 µl DMEM + hydrolyzed lactalbumin + 50 µg/ml vitamin C + penicillin/streptomycin + ITS (Insulin-Transferrin-Selenium) in the presence or absence of the compounds. After one day, GAG release was induced by addition of 10 ng of IL-1. Six days after IL-1 induction, the cartilage and culture medium were collected for analysis. During this six day period the culture medium was replaced every two days.
(§3) GAG release was analyzed using the Blyscan® colorimetric assay (Biocolor, Belfast, UK). To measure GAG content of the cartilage explants, the tissue was digested with papain. The culture medium of day 4, 6 and 8 was pooled before GAG analysis. GAG release was expressed as percentage of the total GAG content of the explants (i.e. GAG medium + GAG in papain digest).
(§4) A control condition with 0.25% DMSO was included because the test compounds were dissolved in DMSO. A condition with glucosamine hydrochloride was added for comparison.
(§5) Each culture condition was performed with cartilage of five different paws/patients to account for biological variation.
(§6) ANOVA followed by LSD post-hoc tests were used for determining differences between groups (p≤ 0.05 was considered significant).
(§7) Results in Tables 3 and 4 were expressed as a percentage reduction in GAG release compared to the control condition with DMSO stimulated with IL-1.

[2] = system: human cartilage explants; assay: GAG release inhibition (IL-1 induced) in human cartilage explants, Blyscan colorimetric assay; format: cell-based; settings: for reduction of GAG release (result in words): doses 50 µM, 100 µM and 250 µM
Procedure: as §1, §2, §3, §4, §5, §6, §7

[3] = Bos taurus, bovine cartilage explants, percentage reduction in GAG release vs 0.25% DMSO + IL-1 control, * p≤ 0.05, (Inactive) = not statistically significant

Compound | reduction in the GAG release induced by IL-1 (result in words) [1] | inhibition at 100 µM [1, 3] [%] | further results
2-deoxy-2-(pent-4-enoylamino)-3-O-[4-methoxyphenyl(ethoxy-L-prolinyl)]phosphoramidate-D-glucopyranose [Compound 87] | statistically significant reduction of the GAG release | – | GAG release inhibition ([1]; 250 µM, bovine cartilage explants, percentage reduction in GAG release vs 0.25% DMSO + IL-1 control, * p≤ 0.05, (Inactive) = not statistically significant): 33.3%*
COc1ccc(OP(=O)(O[C@H]2[C@H](O)[C@@H](CO)OC(O)[C@@H]2NC(C)=O)N2CCC[C@H]2C(=O)OCc2ccccc2)cc1 (stereo partly drawn) [Compound 1, 2-acetamido-2-deoxy-3-O-[4-methoxyphenyl(benzyloxy-L-prolinyl)]phosphoramidate-D-glucopyranose] | statistically significant reduction of the GAG release | – | reduction of GAG release (result in words) [2]: statistically significant activity
COc1ccc(OP(=O)(N[C@H](C(=O)OCc2ccccc2)C(C)C)O[C@H]2[C@H](O)[C@@H](CO)OC(O)[C@@H]2NC(C)=O)cc1 (stereo partly drawn) [Compound 16, 2-acetamido-2-deoxy-3-O-[4-methoxyphenyl(benzyloxy-L-valinyl)]phosphoramidate-D-glucopyranose] | statistically significant reduction of the GAG release | 27 | –
CCOC(=O)[C@@H]1CCCN1P(=O)(Oc1ccc(OC)cc1)O[C@H]1[C@H](O)[C@@H](CO)OC(O)[C@@H]1NC(C)=O (some centres unmarked) [Compound 31] | statistically significant reduction of the GAG release | – | –
CCOC(=O)[C@@H]1CCCN1P(=O)(Oc1ccc(OC)cc1)O[C@H]1[C@H](O)[C@@H](NC(C)=O)C(O)O[C@@H]1CO (stereo partly drawn) [Compound 32, 2-acetamido-2-deoxy-4-O-[4-methoxyphenyl(ethoxy-L-prolinyl)]phosphoramidate-D-glucopyranose] | statistically significant reduction of the GAG release | – | –
CCC(C)OC(=O)[C@@H](NP(=O)(Oc1ccc(OC)cc1)O[C@H]1[C@H](O)[C@@H](CO)OC(O)[C@@H]1NC(C)=O)C(C)C (stereo partly drawn) [Compound 58, 2-acetamido-2-deoxy-3-O-[4-methoxyphenyl(2-butoxy-L-valinyl)]phosphoramidate-D-glucopyranose] | statistically significant reduction of the GAG release | 41 | –
C=CCCC(=O)N[C@H]1C(O)O[C@H](CO)[C@@H](O)[C@@H]1OP(=O)(N[C@H](C(=O)OCc1ccccc1)C(C)C)Oc1ccc(OC)cc1 (stereo partly drawn) [Compound 61, 2-deoxy-2-(pent-4-enoylamino)-3-O-[4-methoxyphenyl(benzyloxy-L-valinyl)]phosphoramidate-D-glucopyranose] | statistically significant reduction of the GAG release | 47 | –
COc1ccc(OP(=O)(N[C@H](C(=O)OCc2ccccc2)C(C)C)O[C@H]2[C@H](O)[C@@H](CO)OC(O)[C@@H]2N)cc1 (stereo partly drawn) [Compound 63, 2-amino-2-deoxy-3-O-[4-methoxyphenyl(benzyloxy-L-valinyl)]phosphoramidate-D-glucopyranose] | statistically significant reduction of the GAG release | 31 | –
CCCCCOC(=O)[C@@H]1CCCN1P(=O)(Oc1ccc(OC)cc1)O[C@H]1[C@H](O)[C@@H](NC(C)=O)C(O)O[C@@H]1CO (stereo partly drawn) [Compound 69, 2-acetamido-2-deoxy-4-0-[4-methoxyphenyl(n-pentoxy-L-prolinyl)]phosphoramidate-D-glucopyranose] | statistically significant reduction of the GAG release | – | –
CC(=O)N[C@H]1C(O)O[C@H](CO)[C@@H](O)[C@@H]1OP(=O)(Oc1ccccc1)N1CCC[C@H]1C(=O)OCc1ccccc1 (stereo partly drawn) [Compound 74, 2-acetamido-2-deoxy-3-O-[phenyl(benzyloxy-L-prolinyl)]phosphoramidate-D-glucopyranose] | statistically significant reduction of the GAG release | – | –
CCOC(=O)[C@@H]1CCCN1P(=O)(Oc1cccc2ccccc12)O[C@H]1[C@H](O)[C@@H](CO)OC(O)[C@@H]1NC(C)=O (stereo partly drawn) [Compound 80, 2-acetamido-2-deoxy-3-O-[1-naphtyl(ethoxy-L-prolinyl)]phosphoramidate-D-glucopyranose] | statistically significant reduction of the GAG release | – | –
Cl.N[C@H]1C(O)O[C@H](CO)[C@@H](O)[C@@H]1O (some centres unmarked) [Glucosamine Hydrochloride] | did not caused any statistically significant reduction | 0 | inhibition at 50 µM ([2]; 50 µM, percentage reduction in GAG release vs 0.25% DMSO + IL-1 control, * p≤ 0.05, (Inactive) = not statistically significant): 7.8%; inhibition at 100 µM ([2]; 100 µM, percentage reduction in GAG release vs 0.25% DMSO + IL-1 control, * p≤ 0.05, (Inactive) = not statistically significant): 11.9%; inhibition at 250 µM ([2]; 250 µM, percentage reduction in GAG release vs 0.25% DMSO + IL-1 control, * p≤ 0.05, (Inactive) = not statistically significant): 11.9%; reduction of GAG release (result in words) [2]: inactive; inhibition at 250 µM ([1]; Bos taurus, 250 µM, bovine cartilage explants, percentage reduction in GAG release vs 0.25% DMSO + IL-1 control, * p≤ 0.05, (Inactive) = not statistically significant): 0%
COc1ccc(OP(=O)(NC(C(=O)OCc2ccccc2)C(C)C)OC[C@H]2OC(O)[C@H](NC(C)=O)[C@@H](O)[C@@H]2O)cc1 (some centres unmarked) [Reference compound 4, reference compound] | – | 3 | –
COc1ccc(OP(=O)(NC(C(=O)OCc2ccccc2)C(C)C)OC[C@H]2OC(O)[C@H](N)[C@@H](O)[C@@H]2O)cc1 (some centres unmarked) [Reference compound 5, reference compound] | – | 4 | –
